The values below come from ChEMBL document CHEMBL5500330, “Novel thiazolidin-4-one benzenesulfonamide hybrids as PPARγ agonists: Design, synthesis and in vivo anti-diabetic evaluation” (Eur J Med Chem, 2024).

The test system of data set [1] is Rattus norvegicus. The data set can be described thus: Antidiabetic activity against NA-STZ induced Wistar rat model of type 2 diabetes assessed as decrease in blood glucose level at 36 mg/kg, po measured after 21 days relative to control. It is filed as functional. Set-up: scale not given: the % may be the effect or the level left. The note with it: time 21 day.

The test system of data set [2] is Rattus norvegicus. The data set can be described thus: Antidiabetic activity against NA-STZ induced Wistar rat model of type 2 diabetes assessed as increase in C-peptide level at 36 mg/kg, po measured after 21 days by ELISA method relative to control. It is filed as functional. The note with it: time 21 day. On the technique in general: In an ELISA, binding on a coated surface is turned into a signal by an enzyme label.

For data set [3], the system named is Rattus norvegicus. Put plainly: Antidiabetic activity against STZ induced Albino Wistar rat diabetic model assessed as hypoglycaemic effect at 36 mg/kg, po administered as single dose and measured after 15 days. It is filed as functional. Particulars: time 15 day.
The target of data set [4] is T1, Peroxisome proliferator-activated receptor alpha (Homo sapiens, UniProt Q07869).
T1 sequence (Q07869 whole entry): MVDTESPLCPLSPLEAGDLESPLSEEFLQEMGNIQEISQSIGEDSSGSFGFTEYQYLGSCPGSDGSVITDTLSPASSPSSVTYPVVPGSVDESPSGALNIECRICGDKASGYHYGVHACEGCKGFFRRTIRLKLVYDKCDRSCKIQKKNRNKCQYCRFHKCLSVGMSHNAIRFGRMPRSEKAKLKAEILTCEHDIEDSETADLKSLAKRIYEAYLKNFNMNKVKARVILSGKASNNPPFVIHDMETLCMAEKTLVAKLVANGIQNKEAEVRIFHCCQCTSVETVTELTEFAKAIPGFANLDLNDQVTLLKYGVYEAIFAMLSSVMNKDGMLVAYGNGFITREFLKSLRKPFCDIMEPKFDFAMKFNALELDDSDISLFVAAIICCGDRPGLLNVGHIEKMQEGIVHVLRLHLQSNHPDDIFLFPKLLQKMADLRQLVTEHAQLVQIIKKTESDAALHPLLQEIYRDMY
Put plainly: Agonist activity at human PPAR alpha by luciferase reporter gene assay. For orientation: A reporter such as luciferase makes a cellular process visible.

The target in data set [5] is T2, Peroxisome proliferator-activated receptor delta (Homo sapiens, UniProt Q03181).
T2 sequence (Q03181 whole entry): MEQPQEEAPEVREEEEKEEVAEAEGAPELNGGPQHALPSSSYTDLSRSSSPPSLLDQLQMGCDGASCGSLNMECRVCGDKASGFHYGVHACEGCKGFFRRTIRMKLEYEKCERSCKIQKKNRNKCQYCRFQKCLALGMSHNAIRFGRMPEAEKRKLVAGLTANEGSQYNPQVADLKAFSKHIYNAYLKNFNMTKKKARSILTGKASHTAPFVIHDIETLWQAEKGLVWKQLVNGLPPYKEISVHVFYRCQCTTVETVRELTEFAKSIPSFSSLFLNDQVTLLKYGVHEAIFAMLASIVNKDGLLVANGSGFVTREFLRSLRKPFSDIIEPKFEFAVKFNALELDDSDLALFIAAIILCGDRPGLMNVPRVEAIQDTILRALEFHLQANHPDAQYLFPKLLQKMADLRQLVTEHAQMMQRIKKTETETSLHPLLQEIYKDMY
Put plainly: Agonist activity at human PPAR delta by luciferase reporter gene assay.

Data set [6] can be described thus: Acute toxicity in male Albino mouse assessed as mortality at upto 2000 mg/kg, po measured upto 7 days. It is filed as organism-based. Particulars: in vivo, 168 h, time < 7 day.
The target in data set [7] is T3, Peroxisome proliferator-activated receptor gamma (Homo sapiens, UniProt P37231).
T3 sequence (P37231 whole entry): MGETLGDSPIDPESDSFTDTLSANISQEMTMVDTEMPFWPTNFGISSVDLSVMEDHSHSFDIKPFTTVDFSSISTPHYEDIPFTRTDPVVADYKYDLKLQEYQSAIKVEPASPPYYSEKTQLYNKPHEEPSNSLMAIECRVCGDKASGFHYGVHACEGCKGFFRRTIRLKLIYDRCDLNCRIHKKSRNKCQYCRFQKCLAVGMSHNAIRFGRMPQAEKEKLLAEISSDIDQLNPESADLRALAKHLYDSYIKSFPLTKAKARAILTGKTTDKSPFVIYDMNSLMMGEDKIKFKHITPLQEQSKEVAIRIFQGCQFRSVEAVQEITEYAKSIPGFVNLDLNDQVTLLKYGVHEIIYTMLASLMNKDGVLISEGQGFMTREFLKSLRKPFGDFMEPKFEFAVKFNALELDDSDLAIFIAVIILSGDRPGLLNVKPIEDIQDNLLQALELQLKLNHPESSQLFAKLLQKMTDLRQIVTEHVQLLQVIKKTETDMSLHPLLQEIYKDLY
Put plainly: Agonist activity at human PPAR gamma by luciferase reporter gene assay.

Molecules are shown by their SMILES.

Consider `CCc1ccc(CCOc2ccc(CC3SC(=O)NC3=O)cc2)nc1` (stereo not given) [PIOGLITAZONE], for which the Activity with Rattus norvegicus [1] came out at 35%; in the data set with Rattus norvegicus [2], 38.6%; with Rattus norvegicus [3] it was 132.2 mg/dL.
As a reminder, the EC50 is the concentration at which the effect is half-maximal. Regarding `COc1cc(/C=C2\SC(Nc3ccc(S(N)(=O)=O)cc3)=NC2=O)ccc1OCc1ccc(C)cc1`, the 50% effective concentration (EC50) in data set [4] was found to be 40.9 µM; in data set [5], 48.1 µM. Also, the Activity result in data set [6] was “Toxic”.
On to `COc1cc(/C=C2\SC(Nc3ccc(S(N)(=O)=O)cc3)=NC2=O)ccc1OCCc1ccccc1`, for which the EC50 was determined as 11.1 µM in data set [7] and 16.3 µM in data set [5]. Moreover, the Activity result in data set [6] is recorded as “Toxic”.
`NS(=O)(=O)c1ccc(-n2cc(/C=C3\SC(=O)NC3=O)c(-c3ccc4ccccc4c3)n2)cc1`: in the data set on Rattus norvegicus [3], the Activity is 134.1 mg/dL.
For the compound `COc1cccc(COc2cc(/C=C3\SC(Nc4ccc(S(N)(=O)=O)cc4)=NC3=O)ccc2OC)c1`, the EC50 in data set [4] was determined as 22.7 µM; in data set [7], 2.94 µM. For the same compound, the Activity result in data set [6] is “Non-Toxic”.
With `NS(=O)(=O)c1ccc(NC2=NC(=O)/C(=C/c3ccc(OCc4ccc(Cl)cc4)cc3)S2)cc1`, in data set [5], the EC50 worked out at 35.2 µM. The Activity entry in data set [6] is “Toxic”.
On to `CC(C)(Oc1ccc(CCNC(=O)c2ccc(Cl)cc2)cc1)C(=O)O` [BEZAFIBRATE], for which the EC50 turned out to be 83.3 µM in data set [7] and 25.9 µM in data set [5].
As for `COc1cccc(COc2ccc(/C=C3\SC(Nc4ccc(S(N)(=O)=O)cc4)=NC3=O)cc2OC)c1`, the EC50 in data set [7] came to 3.98 µM; in data set [5], 15.4 µM. The Activity entry in data set [6] is “Non-Toxic”.
